Data published in patent US20090012103A1, “SUBSTITUTED HETEROCYCLIC COMPOUNDS” (priority 2007, published 2009).

How the values were obtained:
[1] = target: T1, wild-type human cardiac sodium channel, hNav1.5 (Homo sapiens, UniProt Q14524); experiment: Late INa screening assay (late sodium current, PatchXpress whole cell patch clamp); type: cell-based; settings: read-out: Late INa % blk
[2] = target: T1, wild-type human cardiac sodium channel, hNav1.5; experiment: Peak INa screening assay (tonic block TB and use-dependent block UDB of peak sodium current); type: cell-based; settings: compound at 10 μM
Description: The late sodium current (Late INa) and peak sodium current (Peak INa) assays are performed on an automated electrophysiology platform, PatchXpress 7000A (MDS Analytical Technologies, Sunnyvale, Calif.), which uses the whole cell patch clamp technique to measure currents through the cell membrane of up to 16 cells at a time. The assay uses an HEK293 (human embryonic kidney) cell line heterologously expressing the wild-type human cardiac sodium channel, hNav1.5, purchased from Millipore (Billerica, Mass.). No beta subunits were coexpressed with the Na channel alpha subunit. […] Experiments are carried out at 24-27° C.
For both the Late INa and Peak INa assays, series resistance compensation is set to 50% and whole-cell compensation is performed automatically. […] Currents through open sodium channels are automatically recorded and stored in the DataXpress2 database (MDS Analytical Technologies, Sunnyvale, Calif.). Analysis is performed using DataXpress2 analysis software and data are compiled in Excel.
Compound stocks are routinely made in glass vials to 10 mM in dimethyl sulfoxide (DMSO). In some cases, when compounds are not soluble in DMSO, they are made in 100% ethanol. Stocks are sonicated as necessary. The extracellular solution for screening Late INa is composed of: 140 mM NaCl, 4 mM KCl, 1.8 mM CaCl2, 0.75 mM MgCl2, and 5 mM HEPES with pH adjusted to 7.4 using NaOH. The extracellular solution for screening Peak INa is composed of: 20 mM NaCl, 120 mM N-methyl-D glucamine, 4 mM KCl, 1.8 mM CaCl2, 0.75 mM MgCl2, and 5 mM HEPES with pH adjusted to 7.4 using HCl. The intracellular solution used to perfuse the inside of the cells for both the Late INa and Peak INa assays contains: 120 mM CsF, 20 mM CsCl, 5 mM EGTA, 5 mM HEPES and pH adjusted to 7.4 with CsOH. Compounds are diluted in extracellular solution to 10 μM in glass vials and then transferred to glass well plates before robotic addition to the cells. The 0 Na extracellular solution used at the end of each experiment for the Late INa and Peak INa assays to measure baseline current contains: 140 mM N-methyl-D-glucamine; 4 mM KCl; 1.8 mM CaCl2; 0.75 mM MgCl2; 5 mM HEPES and pH was adjusted to 7.4 with HCl.
Compounds were also evaluated for their effect in several other assays, including their effect on Peak INa. In some cases, the effect on Peak INa was measured using data from the Late INa assay. […] Since the peak INa can be very large, introducing artifacts in the recording, the concentration of Na^+ in the bath is reduced to 20 mM and a nonpermeant cation is added to compensate for the Na^+ that was omitted from the standard extracellular solution (see above). The peak INa assay uses a holding potential of −100 mV and a 20 ms test pulse to 0 mV to activate the channel. As in the Late INa assay, stepping the voltage to 0 mV causes a rapid increase in negative Na current through hNav1.5 that inactivates within a few ms. No late INa activator is added for the peak assay.
For the separate peak INa assay, both tonic (TB) block and use-dependent (UDB) block of peak inward sodium current by 10 μM compound are determined. TB is block of the channel in the resting state, before the channel opens. TB is simulated in this assay by stimulating the channel to open at a low frequency (0.1 Hz). This is done in order to measure the control current amplitude and monitor current rundown, enabling correction for rundown in the calculation of percent block for TB.

hERG potassium channel = hERG potassium channel (Homo sapiens, UniProt Q12809); experiment: hERG screening assay (PatchXpress patch clamp, CHO cell line)
Sequence of hERG potassium channel (Q12809 whole entry): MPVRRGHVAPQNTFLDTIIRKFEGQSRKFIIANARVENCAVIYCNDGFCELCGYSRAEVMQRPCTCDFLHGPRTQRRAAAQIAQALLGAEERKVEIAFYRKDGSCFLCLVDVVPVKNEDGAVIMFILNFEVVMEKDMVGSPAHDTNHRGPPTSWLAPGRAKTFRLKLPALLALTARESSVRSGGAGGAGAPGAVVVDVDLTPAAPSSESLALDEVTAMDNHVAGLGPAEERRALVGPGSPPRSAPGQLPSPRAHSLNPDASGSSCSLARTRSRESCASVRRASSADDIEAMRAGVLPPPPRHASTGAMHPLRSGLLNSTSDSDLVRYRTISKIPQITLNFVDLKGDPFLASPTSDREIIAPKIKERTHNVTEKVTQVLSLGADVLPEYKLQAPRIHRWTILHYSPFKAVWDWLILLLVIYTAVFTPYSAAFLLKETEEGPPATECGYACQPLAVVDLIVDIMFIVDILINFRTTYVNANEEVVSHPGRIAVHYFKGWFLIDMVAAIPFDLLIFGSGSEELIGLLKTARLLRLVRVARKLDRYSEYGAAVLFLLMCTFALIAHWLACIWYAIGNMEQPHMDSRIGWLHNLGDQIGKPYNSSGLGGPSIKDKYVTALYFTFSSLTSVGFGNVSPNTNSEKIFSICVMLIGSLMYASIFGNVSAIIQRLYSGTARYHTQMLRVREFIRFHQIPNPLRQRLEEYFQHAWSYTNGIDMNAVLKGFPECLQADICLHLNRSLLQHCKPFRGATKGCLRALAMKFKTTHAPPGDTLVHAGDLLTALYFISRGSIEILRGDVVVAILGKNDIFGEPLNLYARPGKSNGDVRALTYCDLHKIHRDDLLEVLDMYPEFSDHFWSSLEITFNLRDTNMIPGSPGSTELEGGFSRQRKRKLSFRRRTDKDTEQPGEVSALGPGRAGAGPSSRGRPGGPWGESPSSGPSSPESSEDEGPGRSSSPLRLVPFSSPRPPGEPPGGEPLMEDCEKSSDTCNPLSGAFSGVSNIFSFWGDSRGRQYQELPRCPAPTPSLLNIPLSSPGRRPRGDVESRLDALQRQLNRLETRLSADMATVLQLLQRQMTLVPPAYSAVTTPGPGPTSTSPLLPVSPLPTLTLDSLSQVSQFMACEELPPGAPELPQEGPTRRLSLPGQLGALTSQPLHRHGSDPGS

[3] = tonic block, read-out: Tonic Peak INa % blk
[4] = use-dependent block, read-out: UDB Peak INa % blk

T1 sequence (Q14524 whole entry): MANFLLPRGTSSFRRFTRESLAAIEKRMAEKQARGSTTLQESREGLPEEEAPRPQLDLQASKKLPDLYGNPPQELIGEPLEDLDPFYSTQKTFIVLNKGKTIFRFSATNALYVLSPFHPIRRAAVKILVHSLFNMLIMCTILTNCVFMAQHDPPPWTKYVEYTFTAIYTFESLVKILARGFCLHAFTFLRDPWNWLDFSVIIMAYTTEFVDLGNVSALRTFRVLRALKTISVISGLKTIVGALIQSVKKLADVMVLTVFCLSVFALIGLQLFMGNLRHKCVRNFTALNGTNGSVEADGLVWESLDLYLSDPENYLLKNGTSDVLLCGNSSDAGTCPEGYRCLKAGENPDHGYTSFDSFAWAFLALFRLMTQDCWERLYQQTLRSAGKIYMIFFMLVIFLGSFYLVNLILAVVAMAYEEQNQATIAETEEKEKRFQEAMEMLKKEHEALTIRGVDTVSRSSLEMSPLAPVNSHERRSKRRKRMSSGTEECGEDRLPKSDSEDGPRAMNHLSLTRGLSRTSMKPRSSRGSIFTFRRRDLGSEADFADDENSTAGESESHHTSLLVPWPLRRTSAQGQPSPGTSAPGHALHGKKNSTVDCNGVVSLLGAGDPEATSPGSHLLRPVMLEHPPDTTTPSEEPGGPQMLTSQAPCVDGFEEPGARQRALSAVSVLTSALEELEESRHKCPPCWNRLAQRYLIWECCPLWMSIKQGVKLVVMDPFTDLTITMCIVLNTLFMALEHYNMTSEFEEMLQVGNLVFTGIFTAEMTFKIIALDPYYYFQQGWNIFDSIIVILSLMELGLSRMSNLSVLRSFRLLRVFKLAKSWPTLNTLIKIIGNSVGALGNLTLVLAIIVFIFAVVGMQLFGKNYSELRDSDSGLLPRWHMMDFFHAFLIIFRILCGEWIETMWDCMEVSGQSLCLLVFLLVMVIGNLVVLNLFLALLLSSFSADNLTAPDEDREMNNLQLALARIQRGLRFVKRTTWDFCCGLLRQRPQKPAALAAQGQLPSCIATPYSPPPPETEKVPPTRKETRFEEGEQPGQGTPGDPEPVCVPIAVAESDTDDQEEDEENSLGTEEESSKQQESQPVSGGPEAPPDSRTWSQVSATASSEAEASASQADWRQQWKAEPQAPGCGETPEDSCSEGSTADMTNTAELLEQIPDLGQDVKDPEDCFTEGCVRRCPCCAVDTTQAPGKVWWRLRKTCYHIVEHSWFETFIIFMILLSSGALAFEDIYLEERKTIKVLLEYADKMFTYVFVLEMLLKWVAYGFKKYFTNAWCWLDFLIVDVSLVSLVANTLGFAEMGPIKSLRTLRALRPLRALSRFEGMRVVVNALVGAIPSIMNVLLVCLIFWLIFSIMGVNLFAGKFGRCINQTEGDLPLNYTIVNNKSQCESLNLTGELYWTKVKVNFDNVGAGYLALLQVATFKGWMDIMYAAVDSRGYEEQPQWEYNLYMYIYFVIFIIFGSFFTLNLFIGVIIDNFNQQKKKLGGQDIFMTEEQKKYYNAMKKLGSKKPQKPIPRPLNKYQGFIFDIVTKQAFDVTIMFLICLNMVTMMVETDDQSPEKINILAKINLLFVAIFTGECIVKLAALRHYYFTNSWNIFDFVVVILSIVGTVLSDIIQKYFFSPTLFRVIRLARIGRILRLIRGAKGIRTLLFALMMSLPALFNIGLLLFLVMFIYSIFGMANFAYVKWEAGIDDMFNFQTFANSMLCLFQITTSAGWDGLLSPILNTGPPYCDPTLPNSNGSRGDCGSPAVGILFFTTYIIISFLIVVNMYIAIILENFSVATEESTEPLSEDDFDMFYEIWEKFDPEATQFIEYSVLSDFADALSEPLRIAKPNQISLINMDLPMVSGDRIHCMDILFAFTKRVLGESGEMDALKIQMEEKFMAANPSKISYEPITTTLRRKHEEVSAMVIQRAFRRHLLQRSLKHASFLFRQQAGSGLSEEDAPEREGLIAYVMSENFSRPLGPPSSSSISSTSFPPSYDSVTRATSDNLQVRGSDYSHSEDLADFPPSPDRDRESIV

| SMILES | inhibition at 10 µM ([1]; compound at 10 μM) [%] | inhibition at 10 µM [2, 3] [%] | hERG Patch Clamp hERG % blk (hERG potassium channel; 1 μM) [%] | hERG Patch Clamp hERG % blk (hERG potassium channel; 10 μM) [%] | inhibition at 10 µM [1] [%] | inhibition at 10 µM [2, 4] [%] |
| --- | --- | --- | --- | --- | --- | --- |
| CC1=C(C(=O)OCc2ccccc2)C(c2ccc(N(C)C)c3ccccc23)n2nnnc2N1 (stereo not drawn) [PT-032, benzyl 7-(4-(dimethylamino)naphthalen-1-yl)-5-methyl-4,7-dihydrotetrazolo[1,5-a]pyrimidine-6-carboxylate] | 63.6 | 11.5 | 19.0 | 50.5 | – | – |
| CCOC(=O)C1=C(C)Nc2nnnn2C1c1cccc2ccccc12 (stereo not drawn) [PT-192, ethyl 5-methyl-7-(naphthalen-1-yl)-4,7-dihydrotetrazolo[1,5-a]pyrimidine-6-carboxylate] | – | 0 | 23.0 | 29.0 | 52.3 | – |
| COc1ccc(C2C(C(=O)OCc3ccccc3)=C(C)Nc3nnnn32)c(C#N)c1 (stereo not drawn) [PT-389, benzyl 7-(2-cyano-4-methoxyphenyl)-5-methyl-4,7-dihydrotetrazolo[1,5-a]pyrimidine-6-carboxylate] | 49.7 | -1.6 | 23.5 | 69.0 | – | – |
| CC1=C(C(=O)OC(C)C)C(c2ccc(Br)s2)C(C(=O)OC(C)C)=C(C)N1 [PT-124, diisopropyl 4-(5-bromothiophen-2-yl)-2,6-dimethyl-1,4-dihydropyridine-3,5-dicarboxylate] | 86.2 | 58.7 | 11.5 | 66.0 | – | – |
| CCOC(=O)C1=C(C)Nc2[nH]ncc2C1c1ccc(OC)cc1OCc1ccccc1 (stereo not drawn) [PT-445, ethyl 4-(2-(benzyloxy)-4-methoxyphenyl)-6-methyl-4,7-dihydro-1H-pyrazolo[3,4-b]pyridine-5-carboxylate] | 62.2 | 49.6 | 10.5 | 50.0 | – | 31.6 |
| CC1=C(C(=O)OC(C)C)C(c2ccc3ccccc3c2)C2=C(CCCC2=O)N1 (stereo not drawn) [PT-157, isopropyl 2-methyl-4-(naphthalen-2-yl)-5-oxo-1,4,5,6,7,8-hexahydroquinoline-3-carboxylate] | 62.3 | 15.3 | 16.0 | 37.1 | – | – |
| CCOC(=O)C1=C(C)NC(C)=C(C(=O)OCC)C1c1ccccc1Br [PT-430, diethyl 4-(2-bromophenyl)-2,6-dimethyl-1,4-dihydropyridine-3,5-dicarboxylate] | 95.3 | 91 | 10.0 | 21.5 | – | 55.6 |
| CCOC(=O)C1=C(C)Nc2nnnn2C1c1ccc2ccccc2c1 (stereo not drawn) [PT-008, ethyl 5-methyl-7-(naphthalen-2-yl)-4,7-dihydrotetrazolo[1,5-a]pyrimidine-6-carboxylate] | 57.2 | 2.1 | 10.0 | 33.5 | – | – |
| CCOC(=O)C1=C(C)NC2=C(C(=O)CCC2)C1c1ccco1 (stereo not drawn) [PT-153, ethyl 4-(furan-2-yl)-2-methyl-5-oxo-1,4,5,6,7,8-hexahydroquinoline-3-carboxylate] | -5 | 1.7 | 10.5 | 13.5 | – | – |
| CC1=C(C(=O)OCc2ccccc2)[C@@H](c2ccccc2-c2ccc(C)o2)n2nnnc2N1 [PT-235, (R)-benzyl 5-methyl-7-(2-(5-methylfuran-2-yl)phenyl)-4,7-dihydrotetrazolo[1,5-a]pyrimidine-6-carboxylate] | 71.4 | 28.1 | 10.0 | 41.5 | – | – |
| CCOC(=O)C1=C(C)NC(C)=C(C(=O)OCC)C1c1ccc2c(c1)OCCO2 [PT-109, diethyl 4-(2,3-dihydrobenzo[b][1,4]dioxin-6-yl)-2,6-dimethyl-1,4-dihydropyridine-3,5-dicarboxylate] | – | 18.1 | 16.0 | 34.2 | – | – |
